# Assay results: US12233419B2, “Devices, systems, and methods for single cell bacteria analysis” (priority 2018, dated 2025)
# {TAMRA} = 6-carboxytetramethylrhodamine (NHS ester) fluorophore; {FAM} = 6-carboxyfluorescein (6-FAM) fluorophore; {IBFQ} = Iowa Black FQ dark quencher; {IBRQ} = Iowa Black RQ dark quencher
# Key:
# [1] = tested on: E. coli (EC137); assay: Single cell AST in adaptable microfluidic device; assay type: cell-based; settings: for antibiotic response in polymicrobial sample: ampicillin 8 μg/mL, mixed with S. epidermidis or EC136
# Text: (§1) Taking advantage of microfluidic confinement, single cell AST can be performed phenotypically in the presence of antibiotics in the channel. Resistant strains can grow in the presence of the antibiotic while the antibiotic would inhibit the growth of susceptible strains (FIG. 1C). As the cross-section of the channels is compatible with the size of the pathogen, the bacterial growth is confined along the microchannel. The change in length of the bacteria in the channel over time is used to quantitatively measure the growth of the bacteria.
# (§2) In embodiments, bacterial trapping channels of this disclosure are also capable of single cell AST by monitoring the phenotypic growth of the trapped bacteria in the channel. In control groups without antibiotics, the bacteria grew exponentially along the microchannels (FIG. 2B, E, H). […] Growth was measured by an increase in the length of the bacteria occupying the microchannel. The length was normalized according to the initial length for estimating the growth rate, to account for variation of the initial length. Comparison of the growth rate between the control group and the antibiotic group determined the susceptibility of the bacteria. […] Unless otherwise specified, this definition is applied throughout Part I of this disclosure.
# (§3) E. coli, S. epidermidis, and M. bacteremicum were cultured in Mueller Hinton broth, Nutrient broth, and ATCC medium 1395, respectively. The bacteria were cultured to an optical density at 600 nm (OD600) around 0.2 (measured with Nanodrop 2000, Thermo Scientific) and diluted to 5×10^5 cfu/mL following the CLSI guideline. […] The concentration of oxacillin for S. epidermidis was 4 μg/mL. A 20 μl sample was loaded into the inlet of the microchannel. Culture medium was applied to immerse the whole device. The device was then loaded on a microscope (Leica DMI4000B) thermal stage for real-time monitoring (SensiCam QE, PCO) of the bacterial growth. The length of the bacteria occupying the microchannel was measured in ImageJ (imagej.nih.gov/ij/). To model the polymicrobial infection with different species, E. coli (EC137) and S. epidermidis were cultured to OD600 around 0.2, mixed at ratio of 1:1, and diluted to a final concentration of 1×10^6 cfu/mL with and without ampicillin (8 μg/mL). To mimic the polymicrobial infection with different strains, E. coli (EC137 and EC136) were mixed at a ratio of 10:1 and diluted to a final concentration of 5×10^6 cfu/mL with and without ampicillin. In this embodiment, the antibiotic resistance was determined as 50% reduction in the growth rate (or two-fold difference in growth rate) in the antibiotic group based on the distribution of the growth rate of single cells. In particular, we define the threshold value based on the standard derivation of single cell growth and t-statistics (two-tailed, unpaired). In our calibration tests, the standard deviations of the growth rate were below 25% of the mean (in the worst case scenario). In the calculation, the degree of freedom was 8, since at least 5 bacteria were used in each group. A 50% reduction in growth rate is equivalent to a p-value of approximately 0.022.
# [2] = tested on: S. epidermidis (ATCC 12228); assay: Single cell AST in adaptable microfluidic device; assay type: cell-based; settings: for antibiotic response in polymicrobial sample: ampicillin 8 μg/mL, mixed with E. coli EC137 1:1
# Text: as §1, §2, §3
# [3] = tested on: E. coli (EC136); assay: Single cell AST in adaptable microfluidic device; assay type: cell-based; settings: ampicillin; EC137 and EC136 mixed 10:1
# Protocol: We further evaluated the capability of the microfluidic system for identifying samples with multiple strains of the same species, which is challenging for genotypic diagnosis. Two strains of E. coli (EC137 and EC136 at a 10:1 ratio) with different antibiotic resistance profiles were tested. EC137 is susceptible to ampicillin while EC136 is resistant to ampicillin. Both strains were trapped in the microchannels at 180 kPa pressure with no spatial separation in the microchannel (FIG. 3F). […] In the antibiotic group, EC136 grew exponentially with ampicillin in the medium, whereas EC137 was lysed by ampicillin. FIG. 3J illustrates the growth curves of EC136 and EC137 in the same test.
# E. coli, S. epidermidis, and M. bacteremicum were cultured in Mueller Hinton broth, Nutrient broth, and ATCC medium 1395, respectively. The bacteria were cultured to an optical density at 600 nm (OD600) around 0.2 (measured with Nanodrop 2000, Thermo Scientific) and diluted to 5×10^5 cfu/mL following the CLSI guideline. […] The concentration of oxacillin for S. epidermidis was 4 μg/mL. […] The length of the bacteria occupying the microchannel was measured in ImageJ (imagej.nih.gov/ij/). […] In this embodiment, the antibiotic resistance was determined as 50% reduction in the growth rate (or two-fold difference in growth rate) in the antibiotic group based on the distribution of the growth rate of single cells. […]
# [4] = tested on: M. bacteremicum (ATCC 25791); assay: Single cell AST in adaptable microfluidic device; assay type: cell-based; settings: ciprofloxacin 2 μg/mL; growth/non-growth defined by 50% reduction in growth rate
# Text: as §1, §2, §3
# [5] = tested on: E. coli EC132; assay: NAME pathogen identification with microfluidic single cell AST; assay type: cell-based; settings: growth in channels with ciprofloxacin
# Text: (§4) We integrated pathogen identification and single cell AST by applying a microfluidic confinement technique (FIG. 23A) (18, from which the description of the microfluidic device and technique is incorporated herein by reference). […] In this integrated identification and AST assay, the bacteria were transformed, loaded into the microchannels via capillary flow, and trapped in the channels for phenotypic AST. […] AST was implemented by monitoring the bacterial growth in the channels with and without the presence of antibiotics.
# (§5) The bacteria suspension (1 μl) was loaded onto a microscope slide and covered with a cover glass for imaging and counting using a fluorescence microscope (Leica DMI 4000B, objective 40×). The transformation efficiency was estimated by the number of bacteria with an observable fluorescence intensity over the total number of bacteria (bright-field). To conduct AST, the transformed bacteria were loaded onto the microfluidic device by capillary force.
# [6] = tested on: E. coli EC137; assay: as above; assay type: cell-based; settings: growth in channels with ciprofloxacin
# Text: as §4, §5
# [7] = tested on: EC137; assay: Testing bacteria resistance with agar pads; assay type: cell-based, E. coli; settings: with and without ciprofloxacin
# Text: FIG. 28. Testing bacteria resistance with agar pads. (A) Schematics of the procedure for creating agar pads for single cell AST. […] Scale bars, 25 μm.
# [8] = tested on: bacterial 16S rRNA of E. coli; assay: Intracellular 16S rRNA detection with double-stranded probes delivered by NAME; assay type: cell-based
# Text: (§6) As discussed above, the present disclosure provides a microwave electroporation approach for transforming molecular probes into viable bacteria for intracellular sensing and pathogen identification (FIG. 24). Multiwall carbon nanotubes, which couple and localize the microwave energy, can enhance the electric field in a manner similar to a lightning rod for microwave electroporation with a minimal effect on the cell viability^(14, 15). To evaluate the feasibility of multiplex single cell pathogen identification using NAME, two molecular probes targeting the species-specific regions of bacterial 16S rRNA of E. coli (EC probe) and P. aeruginosa (PA probe) were designed and transformed into the bacteria (Tables 4-5). The performance of the double-stranded nucleic acid probe was first calibrated for use in homogeneous sensing (FIG. 25). For multiplex detection, the PA probe was labeled with 6-carboxyfluorescein (6-FAM) and the EC probe was labeled with 6-carboxytetramethylrhodamine (6-TAMRA). Uropathogenic E. coli and P. aeruginosa were transformed with both probes for pathogen identification (FIG. 20D).
# (§7) Four double-stranded probes were used in this disclosure (Table 4). Each probe contained two DNA strands. The donor strands were 22-24 nucleotides long and complementary to the target RNA of interest^(27, 28). The fluorophores, 6-FAM (Fluorescein) or 6-TAMRA (NHS Ester), were labeled at the 3′ end of the donor strands. The quencher strands were 11-12 nucleotides in length. The dark quenchers, Iowa Black FQ for 6-FAM or Iowa Black RQ for 6-TAMRA, were labeled at the 5′ end of the quencher strands immediately adjacent to the fluorophores on the donor strands. The probes were synthesized by Integrated DNA Technologies (Coralville, IA). Other reagents were purchased from Sigma Inc. (St. Louis, MO) unless otherwise specified. To conduct the assay, the probes were made by mixing the fluorophore and quencher strands in the buffer solution, which contains 10 mM Tris-EDTA with 100 mM NaCl at a 1:3 molar ratio, at 95° C. for 5 minutes. The mixtures were then allowed to cool down to room temperature slowly. The final concentration of the probes in the transformation test was 1.5×10^3 nM.
# (§8) Bacteria were grown in Mueller Hinton Broth. To transform the double-stranded probe into bacteria, 100 μl of bacterial sample was centrifuged at 4500 rpm for 5 minutes and washed twice with phosphate buffer (PBS 1×). The multiwall carbon nanotubes that are functionalized with a carboxyl group (COOH) have a diameter of 30±15 nm and a length from 1 to 5 μm (NanoLab, Inc.). The nanotube solution (30 mg/ml) was filtered with a 1 μm microfilter. The pellet was resuspended into 100 μl filtered nanotube solution and incubated for 10 minutes at room temperature. Then, 10 μl molecular probe was added and incubated at room temperature for 10 minutes. The sample was incubated in ice for 5 minutes and then put into a microwave oven (700 W, 2.45 GHz) for 10 seconds. The microwave treated bacteria was incubated at room temperature for 30 minutes and washed 3 times with PBS (1×) to remove the extra probes and resuspended in PBS for imaging.
# [9] = tested on: bacterial 16S rRNA of P. aeruginosa; assay: as above; assay type: cell-based
# Text: as §6, §7, §8
compound,measurement,setting,value
CC1(C)S[C@@H]2[C@H](NC(=O)[C@H](N)c3ccccc3)C(=O)N2[C@H]1C(=O)O [ampicillin],antibiotic response in polymicrobial sample,[1],susceptible
same,antibiotic response in polymicrobial sample,[1]; listed as Ampicillin,bactericidal effect
same,antibiotic response in polymicrobial sample,[2],resistant
same,antibiotic response in polymicrobial sample,[2]; listed as Ampicillin,no effect
same,antibiotic response in polymicrobial sample,[3],resistant
O=C(O)c1cn(C2CC2)c2cc(N3CCNCC3)c(F)cc2c1=O [ciprofloxacin],antimicrobial susceptibility (growth in microchannel),"[1]; ciprofloxacin 4 μg/mL, growth/non-growth defined by 50% reduction in growth rate",effective
same,antimicrobial susceptibility (growth in microchannel),[4],effective
same,antimicrobial susceptibility after NAME,[5],resistant
same,antimicrobial susceptibility after NAME,[6],susceptible
same,growth in agar pads,[7],inhibited the growth
Cc1onc(-c2ccccc2)c1C(=O)N[C@@H]1C(=O)N2[C@@H]1SC(C)(C)[C@@H]2C(=O)O [oxacillin],antimicrobial susceptibility (growth in microchannel),"[2]; oxacillin 4 μg/mL, growth/non-growth defined by 50% reduction in growth rate",completely inhibited the growth
"EC probe (Red): double-stranded DNA probe for E. coli 16S rRNA; donor SEQ ID 3 with 3′ 6-TAMRA, quencher SEQ ID 4 with 5′ Iowa Black RQ (sense GGTATTAACTTTACTCCCTTCCTC; antisense GAGGAAGGGAGT; sense: 3' {TAMRA}, sugars by position and backbone not given here; antisense: 5' {IBRQ}, sugars by position and backbone not given here)",single cell pathogen identification of clinical isolates,[8]; isolates from clinical blood and urine samples,specifically identified
same,fluorescence signal from the probe in the bacteria,"[8]; samples with E. coli only, both probes transformed",clearly observed
same,fluorescence signal from the probe in the bacteria (non-target probe),"[9]; P. aeruginosa samples, EC probe",not
"PA probe: double-stranded DNA probe for P. aeruginosa 16S rRNA; donor SEQ ID 6 with 3′ 6-FAM, quencher SEQ ID 7 (sense GCTGAACCACCTACGCGCGCTTT; antisense AAAGCGCGCGTA; sense: 3' {FAM}, sugars by position and backbone not given here; antisense: 5' {IBFQ}, sugars by position and backbone not given here)",fluorescence signal from the probe in the bacteria (non-target probe),"[8]; samples with E. coli only, PA probe",not observable
same,fluorescence signal from the probe in the bacteria,"[9]; P. aeruginosa samples, both probes transformed",high fluorescence signal
same,single cell pathogen identification of clinical isolates,[9]; isolates from clinical urine samples,specifically identified
